Test results: article PMC12024577, “Synthesis and Antiproliferative Effects of Grossheimin-Derived Aminoanalogues” (Biomolecules, 2025)
Read-outs that look alike come from different tables or passages of the source.

How the values were obtained:
[1] = test system: colorectal cancer HCT-116 cell lines; design: method as in doi:10.14188/j.ajsh.2023.03.009; conditions: cited from earlier work
[2] = test system: Colo320/MDR-LRP (doxorubicin-resistant ABCB1- and LRP-expressing human colon adenocarcinoma cell line); test: MTT assay, cytotoxic effect on Colo320; type: cell-based; conditions: COLO 320, 24 h incubation
Protocol: (§1) The doxorubicin-sensitive Colo205 (ATCC-CCL-222) and the doxorubicin-resistant ABCB1- and LRP-expressing Colo320/MDR-LRP (ATCC-CCL-220.1) human colon adenocarcinoma cell lines were obtained from LGC Promochem in Teddington, UK. For culturing, the RPMI 1640 medium was applied and was supplemented with a 10% heat-inactivated foetal bovine serum (FBS), 2 mM L-glutamine, 1 mM Na-pyruvate and 10 mM HEPES along with nystatin and gentamicin.
(§2) The anticancer activity of the compounds was tested in 96-well flat-bottomed microtiter plates. In this assay, the two-fold serial dilutions of the compounds (concentration range: 100–0.19 μM) were made in a 100 μL RPMI 1640 medium. Next, 1 × 10^4 of human colonic adenocarcinoma cells (Colo205 or Colo320) in a 100 μL RPMI 1640 medium were added to each well except for the medium control wells. The starting concentration of the solvent DMSO in the plate was 2% v/v. The samples were incubated at 37 °C for 24 h. At the end of the incubation, 20 μL of an MTT (thiazolyl blue tetrazolium bromide) solution (from a 5 mg/mL stock solution) was pipetted to each well. After incubation at 37 °C for 4 h, 100 μL of a sodium dodecyl sulfate (SDS) solution (10% SDS in 0.01 M HCl) was pipetted to each well, and the plates were kept at 37 °C overnight. The growth of the cells was determined by measuring the optical density (OD) at 540 nm (refering to 630 nm) with a Multiscan EX ELISA reader (Thermo Labsystems, Cheshire, WA, USA). The inhibition of cell growth was calculated as IC50 values, defined as the inhibitory dose that reduces the growth of the cells exposed to the tested compounds by 50%. The IC50 values and the SD of the triplicate experiments were determined using GraphPad Prism software version 5.00 for Windows with a non-linear regression curve fit (GraphPad Software, San Diego, CA, USA; www.graphpad.com). Doxorubicin (from a 2 mg/mL stock solution, Teva Pharmaceuticals, Singapore) served as a positive control.
(§3) Since several sesquiterpene lactone-based aminoadducts exerted a significant cytotoxic action on different human cancer cell lines, the in vitro cytotoxic activities of the prepared grossheimin-based amino analogues were also tested on human colon adenocarcinoma lines, including Colo205 and Colo320 by MTT assay.

[3] = test system: Colo205 (doxorubicin-sensitive human colon adenocarcinoma cell line); test: MTT assay, cytotoxic effect on Colo205; type: cell-based; conditions: COLO 205, 24 h incubation
Protocol: as §1, §2, §3

MDA-MB-231 = test system: MDA-MB-231; design: method as in doi:10.14188/j.ajsh.2023.03.009; conditions: cited from earlier work
CDD-19Lu fibroblasts = test: Cytotoxic effect on fibroblasts; type: cell-based
Protocol: as §2
3. Cytotoxic effects of grossheimin-based aminoanalogues
Table S1. Cytotoxic effects of grossheimin-based aminoanalogues on colon adenocarcinoma cell lines and
CDD-19Lu fibroblasts. Doxorubicin (DOX) was applied as a positive control . n.d: not determined. Starting
concentration of grossheimin-based aminoanalogs and DOX in the assay with CDD-19Lu fibroblasts is 100 and […]

[4] = test system: human colon adenocarcinoma lines, including Colo205 and Colo320; test: MTT assay, colon adenocarcinoma lines; type: cell-based; conditions: text summary over Colo205 and Colo320, read-out: IC50 against colon adenocarcinoma cancers / malignant cell lines
Protocol: as §1
The anticancer activity of the compounds was tested in 96-well flat-bottomed microtiter plates. In this assay, the two-fold serial dilutions of the compounds (concentration range: 100–0.19 μM) were made in a 100 μL RPMI 1640 medium. Next, 1 × 10^4 of human colonic adenocarcinoma cells (Colo205 or Colo320) in a 100 μL RPMI 1640 medium were added to each well except for the medium control wells. The starting concentration of the solvent DMSO in the plate was 2% v/v. The samples were incubated at 37 °C for 24 h. […] The growth of the cells was determined by measuring the optical density (OD) at 540 nm (refering to 630 nm) with a Multiscan EX ELISA reader (Thermo Labsystems, Cheshire, WA, USA). […] The IC50 values and the SD of the triplicate experiments were determined using GraphPad Prism software version 5.00 for Windows with a non-linear regression curve fit (GraphPad Software, San Diego, CA, USA; www.graphpad.com). […]

[5] = Fibroblast, fibroblasts, Table 2, read-out: IC50 CDD-19Lu
[6] = Homo sapiens, CCD 19Lu, fibroblasts, Table S1, starting concentration 100 (analogues) and 8.62 (DOX), read-out: IC50 CCD-19Lu

SMILES | IC50 ([2]; Table S1) [µM] | IC50 ([3]; Table S1) [µM] | IC50 (CDD-19Lu fibroblasts; [6]) [µM] | further results
C=C1C(=O)O[C@H]2[C@H]1[C@@H](O)CC(=C)[C@@H]1CC(=O)[C@@H](C)[C@H]21 [Compound 1, Grossheimin] | – | – | – | IC50 [1]: 30.9 µM; IC50 ([2]; Table 2): 27.9 ± 2 µM; IC50 ([3]; Table 2): 23.3 ± 2.05 µM; IC50 (MDA-MB-231): 16.9 µM; IC50 (CDD-19Lu fibroblasts; Fibroblast, read-out: IC50 CDD-19Lu): > 100 µM
C=C1C(=O)O[C@H]2[C@H]1[C@@H](OC(C)=O)CC(=C)[C@@H]1CC(=O)[C@@H](C)[C@H]21 [Compound 2] | – | – | – | IC50 [4]: ~9 µM; IC50 ([2]; Table 2): 9.44 ± 0.41 µM; IC50 ([3]; Table 2): 8.21 ± 0.51 µM; IC50 (CDD-19Lu fibroblasts; [5]): > 100 µM
C=C1C[C@H](O)[C@@H]2[C@H](OC(=O)[C@H]2C)[C@H]2[C@H](C)[C@H](O)C[C@@H]12 [Compound 3] | > 100 | > 100 | > 100 | –
C=C1C[C@H](OC(C)=O)[C@@H]2[C@H](OC(=O)[C@H]2C)[C@H]2[C@H](C)[C@@H](OC(C)=O)C[C@@H]12 [Compound 4] | > 100 | > 100 | > 100 | –
C=C1C[C@H](O)[C@@H]2[C@H](OC(=O)[C@H]2CNCc2ccccc2)[C@H]2[C@H](C)C(=O)C[C@@H]12 [Compound 5] | > 100 | > 100 | > 100 | –
C=C1C[C@H](O)[C@@H]2[C@H](OC(=O)[C@H]2CNCc2ccccc2)[C@H]2[C@H](C)[C@@H](O)C[C@@H]12 [Compound 6] | > 100 | > 100 | > 100 | –
C=C1C[C@H](O)[C@@H]2[C@H](OC(=O)[C@H]2CNC=O)[C@H]2[C@H](C)C(=O)C[C@@H]12 [Compound 7] | > 100 | > 100 | – | –
C=C1C[C@H](O)[C@@H]2[C@H](OC(=O)[C@H]2CSCc2ccccc2)[C@H]2[C@H](C)C(=O)C[C@@H]12 [Compound 8] | > 100 | > 100 | > 100 | –
C=C1C[C@H](O)[C@@H]2[C@H](OC(=O)[C@H]2CSCc2ccccc2)[C@H]2[C@H](C)[C@H](O)C[C@@H]12 [Compound 9] | > 100 | > 100 | > 100 | –
C=C1C[C@H](O)[C@@H]2[C@H](OC(=O)[C@H]2COC)[C@H]2[C@H](C)C(=O)C[C@@H]12 [Compound 10] | > 100 | > 100 | – | –
C=C1C[C@H](O)[C@@H]2[C@H](OC(=O)[C@H]2Cn2cnc3ccccc32)[C@H]2[C@H](C)C(=O)C[C@@H]12 [Compound 11f] | > 100 | > 100 | > 100 | –
C=C1C(=O)O[C@H]2[C@H]1[C@@H](O)CC(=C)[C@@H]1C[C@H](O)[C@@H](C)[C@H]21 [Compound 12] | – | – | – | IC50 ([2]; Table 2): 53.6 ± 1.6 µM; IC50 ([3]; Table 2): 63.8 ± 1.32 µM; IC50 (CDD-19Lu fibroblasts; [5]): > 100 µM
C=C1C(=O)O[C@H]2[C@H]1[C@@H](OC(C)=O)CC(=C)[C@@H]1C[C@H](OC(C)=O)[C@@H](C)[C@H]21 [Compound 13] | – | – | – | IC50 [4]: ~8 µM; IC50 ([2]; Table 2): 6.98 ± 0.29 µM; IC50 ([3]; Table 2): 8.21 ± 0.51 µM; IC50 (CDD-19Lu fibroblasts; [5]): 29.1 ± 0.46 µM
C=C1C[C@H](O)[C@@H]2[C@H](OC(=O)[C@H]2CNC=O)[C@H]2[C@H](C)[C@@H](O)C[C@@H]12 [Compound 14] | > 100 | > 100 | – | –
C=C1C[C@H](O)[C@@H]2[C@H](OC(=O)[C@H]2COC)[C@H]2[C@H](C)[C@@H](O)C[C@@H]12 [Compound 15] | > 100 | > 100 | – | –
C=C1C[C@H](O)[C@@H]2[C@H](OC(=O)[C@H]2Cn2cnc3ccccc32)[C@H]2[C@H](C)[C@@H](O)C[C@@H]12 [Compound 16a] | > 100 | > 100 | > 100 | –
COc1cccc2c1C(=O)c1c(O)c3c(c(O)c1C2=O)C[C@@](O)(C(=O)CO)C[C@@H]3O[C@H]1C[C@H](N)[C@H](O)[C@H](C)O1 [DOX, Doxorubicin, reference compound] | – | – | – | IC50 ([2]; Table 2): 4.36 ± 0.08 µM; IC50 ([3]; Table 2): 3.21 ± 0.03 µM; IC50 (CDD-19Lu fibroblasts; [5]): > 8.62 µM
